According to ChEMBL document CHEMBL1121396, “10,10-Difluoro-13-dehydroprostacyclin: a chemically and metabolically stabilized potent prostacyclin” (J Med Chem, 1980):
pEC50: −log10 of the molar value.

Experiments:
[1] = Tested for effect to cause relaxation of […] mesenteric artery previously contracted by PGF2-alpha; format: functional
[2] = Tested for effect to cause relaxation of bovine coronary artery; format: functional, tissue-based, Bos taurus

Row | SMILES | pEC50 [1] | pEC50 [2]
1 | CCCCC[C@H](O)/C=C/[C@@H]1[C@H]2C/C(=C/CCCC(=O)O)O[C@H]2C[C@H]1O [EPOPROSTENOL] | 8.48 | 7.55
2 | CCCCC[C@H](O)C#CC1C2C/C(=C\CCCC(=O)O)OC2C(F)(F)C1O (some centres undefined) | 8.64 | 8.07
